Results taken from patent US8551972B2, “Agonists of A2A adenosine receptors for treating recurrent tumor growth” (Adenosine Therapeutics, LLC, priority 2007, dated 2013).
Entries after “also recorded” stand apart in the source; their conditions may differ.

System: C26 colorectal carcinoma liver metastases
Assay: Mouse model of hepatic ischemia/reperfusion (I/R)-accelerated outgrowth of C26 colorectal liver metastases
Assay type: in vivo, mouse (male Balb/C)
Settings: for ratio of hepatic replacement area (HRA) values in ischemic (clamped) left liver lobes versus non-ischemic right and median liver lobes: FIG. 4, I/R-subjected mice, day 10, sham about 1, untreated I/R about 2.5-fold; for accelerated (necrosis-associated) tumor growth in the clamped left liver lobes following I/R: left lobar I/R on day 5, livers day 10, ZM241385 1 micro-g/kg bolus + 10 ng/kg/min minipump, 3 days
Text: A mouse model has been enabled in which selective temporary occlusion of blood flow into the left liver lobe results in a profound acceleration of tumor growth in the clamped liver lobes, but not in the unclamped liver lobes. An A2A receptor agonist was then studied to determine its effect on the accelerated tumor growth.
• Male Balb/C mice (10-12 weeks) are housed under standard laboratory conditions with free access to water and chow and a 12-hour dark-light cycle. 2. Before the Experiment: Cell Culture • The murine colon carcinoma cell line C26 is cultured in Dulbecco's modified Eagle's medium supplemented with 5% heat-inactivated fetal calf serum, penicillin (100 units/ml) and streptomycin (100 μg/ml) in a 5% carbon dioxide environment. 3. Day 0: Induction of Liver Metastases • Confluent cultures of the C26 cell line are harvested by brief trypsinization (0.05 trypsin in 0.02% EDTA). • After centrifugation, single cell suspensions are prepared in PBS to a final concentration of 5×10^4 cells/100 μl. • Cell viability is determined by trypan blue staining, and should be ≧98%. • The induction of liver metastases is performed under inhalation anesthesia with a 1.5-2% isoflurane/O2 mixture using a mask. • Buprenorfine (3 μg/mouse) is administered intramuscularly prior to surgery to provide sufficient intra- and postoperative analgesia. • Surgical procedures are performed under aseptic conditions. • Body temperature is maintained at 36.5-37.5° C. by placing the animals on a heated table and covering them by aluminium foil. • Through a left lateral flank incision, 5×10^4 C26 colorectal carcinoma cells are injected into the splenic parenchyma (within an hour after trypsinisation). • After ten minutes, the spleen is removed to prevent intrasplenic tumor growth. • After the procedure a small amount of saline is left in the abdominal cavity and the peritoneum and skin are separately closed with 5.0 vicryl. • Animals are allowed to recover from anesthesia under standard laboratory conditions and are allowed free access to water and chow. 4. Day 0-5: • Micrometastases are allowed to develop throughout the liver for 5 days. 5. Day 5: Marine Model of Hepatic I/R • The induction of hepatic I/R is performed under inhalation anesthesia with a 1.5-2% isoflurane/O2 mixture using a mask. • Buprenorfine (3 μg/mouse) is administered intramuscularly prior to surgery to provide sufficient intra- and postoperative analgesia. • Surgical procedures are performed under aseptic conditions. • Body temperature is maintained at 36.5-37.5° C. by placing the animals on a heated table and covering them by aluminium foil. • ATL-313 solutions are prepared and suspended in osmotic minipumps (Alzet) at a dose of 3 ng/kg/min. Minipumps are placed in normal saline at 37° C. for at least 4 hours prior to the operation, to allow immediate drug delivery. • After laparotomy, mice receive an intraperitoneal bolus injection of 1 ng/kg ATL-313. • A control group received the A2AR antagonist ZM241385 as an intraoperative bolus (1 micro-g/kg) and subsequently continuously using osmotic intraperitoneal minipumps (10 ng/kg/min; 3 days). • Sham operated mice undergo laparotomy with exposure of the liver but without interruption of hepatic flow. • Partial hepatic I/R is induced by occluding the vascular inflow of the left lateral liver lobe for 45 minutes, corresponding to approximately 40% of the liver mass. • Surgical foil is placed over the laparotomy wound to avoid dehydration. • After removal of the clamps a small amount of saline is left in the abdominal cavity • The peritoneum and skin are separately closed with 5.0 vicryl. 6. Day 5-10: • Micrometastases are allowed to grow out to macrometastases (approximately 10-20% of the non-clamped lobes at day 10) for 5 days 7. Day 10: • Livers were harvested, fixed in formalin, and embedded in paraffin. Tissue sections were stained with H&E and the following parameters were assessed by an operator who was blinded to treatment. • 1. […]

[1] = ATL-313 1 ng/kg bolus + 3 ng/kg/min minipump

## COC(=O)N1CCC(CC#Cc2nc(N)c3ncn(C4OC(C(=O)NC5CC5)C(O)C4O)c3n2)CC1 (stereo not shown) [ATL313, 4-{3-[6-Amino-9-(5-cyclopropylcarbamoyl-3,4-dihydroxy-tetrahydro-furan-2-yl)-9H-purin-2-yl]-prop-2-ynyl}-piperidine-1-carboxylic Acid methyl ester]
  ratio of hepatic replacement area (HRA) values in ischemic (clamped) left liver lobes versus non-ischemic right and median liver lobes: 1
Left lobar I/R on day 5 (45 min clamping), livers harvested day 10, H&E, ATL-313 1 ng/kg i.p. bolus + 3 ng/kg/min osmotic minipump
  tissue necrosis (liver): prevents; also recorded: almost completely prevented
[1]
  accelerated (necrosis-associated) tumor growth in the clamped left liver lobes following I/R: prevents; also recorded: almost completely prevented
ATL-313 1 ng/kg bolus + 3 ng/kg/min minipump, listed as ATL
  accelerated (necrosis-associated) tumor growth in the clamped left liver lobes following I/R: prevents the increase in tumor growth
Left lobar I/R on day 5, ATL-313 1 ng/kg bolus + 3 ng/kg/min minipump
  inflammation following I/R: almost completely prevented

## Nc1nc(NCCc2ccc(O)cc2)nc2nc(-c3ccco3)nn12 [ZM241385, reference compound]
  ratio of hepatic replacement area (HRA) values in ischemic (clamped) left liver lobes versus non-ischemic right and median liver lobes: increasing the left-to-right/median ratio, although this difference did not reach statistical significance
[1]
  accelerated (necrosis-associated) tumor growth in the clamped left liver lobes following I/R: appears to aggravate tumor growth
